The source of these data is patent US8188128B2, “Opioid receptor subtype-selective agents” (The University of Medicine and Dentistry of New Jersey, priority 2005, dated 2012).

Read-outs that look alike come from different tables or passages of the source.

The target in one assay is T1, delta receptor (Mus musculus, UniProt P32300).
T1 construct: expressed in transfected cells
Description: Opioid receptor binding assay, δ, [3H]DPDPE, HEK 293 cell membranes. On the set-up: species or system rat. The settings on record: for Selectivity κ/δ / Selectivity μ/δ: ratio of IC50 values; for IC50: compounds of Formula II, Table III. As for the experimental part:
(§1) Receptor binding assay: Cell membrane preparations were obtained from HEK 293-stable transfectants expressing either the murine δ or μ or the human κ receptor. Opioid receptor binding assays were conducted in duplicate on membrane preparations that had been resuspended in 50 mM Tris-HCl, pH 7.5, utilizing [^3H]DPDPE, [^3H]DAMGO and [^3H]U69593 as radiologand for δ, μ, and κ respectively and 10 μM cyclazocine to define non-specific binding. Following a 1 hour incubation on ice, binding assays were terminated by filtration through Whatman GF/B filters. Filters were soaked in Ecoscint liquid scintillation solution (National Diagnostics, Manville, N.J.) and filter-bound radioactivity was measured using a Packard Tri-Carb 2100 TR liquid scintillation analyzer. Receptor binding data was analyzed by non-linear regression of saturation and competition curves using Prisim 3.0 software (GraphPad Software, San Diego, Calif.). Protein concentrations were determined with the Bio-Rad protein using bovine serum albumin as the standard.

The next assay has as its target T2, human kappa receptor (Homo sapiens, UniProt P41145).
T2 construct: expressed in transfected cells
Kind of assay: Opioid receptor binding assay, κ, [3H]U69593, HEK 293 cell membranes. On the procedure:
as §1

Assay [1] deals with T3, δ-receptor (Mus musculus, UniProt P32300). Kind of assay: Function at δ receptor (receptor down regulation assay, HEK 293 cells expressing FLAG-tagged δ-receptor). It counts as cell-based. Further details: FLAG; expressed in transfected cells; host or cells: HEK 293 (G418 selection). The following applies: for Function at δ: compounds of Formula I. On the procedure:
Receptor down regulation assays: HEK 293 cells expressing the FLAG-tagged δ-receptor were grown to near confluence in 100 mm dishes in DMEM media supplemented with 10% fetal calf serum and 0.25 mg/ml G418. Media was replaced with serum-free media prior to overnight incubation with 10 μM or 20 μM of DOP or control compound. Media was aspirated and cell washed twice with cold PBS. Cell homogenates were collected and further washed trice with 50 mM TRIS-HCl, pH 7.5. Protein concentration was measured using Bio-Rad Bradford reagent and equal amount of protein (50 μg) was used for binding assay. Binding assays were performed using [^3H]diprenorphine as the radioactive ligand. Binding assays were conducted as described above.

In a further assay the target is T4, mu receptor (Mus musculus, UniProt P42866).
T4 construct: expressed in transfected cells
T4 sequence (P42866 whole entry): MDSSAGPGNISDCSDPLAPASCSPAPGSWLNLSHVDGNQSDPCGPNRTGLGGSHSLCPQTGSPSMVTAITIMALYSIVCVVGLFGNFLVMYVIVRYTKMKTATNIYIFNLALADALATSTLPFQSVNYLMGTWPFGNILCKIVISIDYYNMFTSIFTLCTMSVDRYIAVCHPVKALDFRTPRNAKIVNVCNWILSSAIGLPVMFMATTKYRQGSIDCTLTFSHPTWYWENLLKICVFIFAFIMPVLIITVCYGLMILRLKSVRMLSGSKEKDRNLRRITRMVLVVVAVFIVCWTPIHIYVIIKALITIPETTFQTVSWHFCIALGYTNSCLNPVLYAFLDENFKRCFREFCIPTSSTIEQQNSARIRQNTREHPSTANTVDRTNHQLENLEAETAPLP
Kind of assay: Opioid receptor binding assay, μ, [3H]DAMGO, HEK 293 cell membranes. On the set-up: species or system rat. The settings on record: compounds of Formula II, Table III. On the procedure: as §1, with “Opioid” for “Receptor binding assay: Cell membrane preparations were obtained from HEK 293-stable transfectants expressing either the murine δ or μ or the human κ receptor. Opioid”

In another assay the target is T5, mu opioid receptor (Mus musculus, UniProt P42866).
T5 construct: expressed in transfected cells
T5 sequence (P42866 whole entry): as above
Kind of assay: Function at the mu opioid receptor. The following applies: Table III.

Another assay has as its target T6, kappa opioid receptor (Homo sapiens, UniProt P41145).
T6 construct: expressed in transfected cells
Kind of assay: Function at the kappa opioid receptor. The settings on record: Table III.

For assay [2], the target named is T3, δ-receptor. The following applies: literature values for comparison compounds; cited from earlier work.
The mark [3] stands for this setting: inhibition of [3H]U69593, HEK 293 cell membrane, compounds of Formula I, read-out: IC50 (nM) κ.
The mark [4] stands for this setting: compounds of Formula II, Table III, read-out: IC50 κ.

T1 sequence (P32300 whole entry): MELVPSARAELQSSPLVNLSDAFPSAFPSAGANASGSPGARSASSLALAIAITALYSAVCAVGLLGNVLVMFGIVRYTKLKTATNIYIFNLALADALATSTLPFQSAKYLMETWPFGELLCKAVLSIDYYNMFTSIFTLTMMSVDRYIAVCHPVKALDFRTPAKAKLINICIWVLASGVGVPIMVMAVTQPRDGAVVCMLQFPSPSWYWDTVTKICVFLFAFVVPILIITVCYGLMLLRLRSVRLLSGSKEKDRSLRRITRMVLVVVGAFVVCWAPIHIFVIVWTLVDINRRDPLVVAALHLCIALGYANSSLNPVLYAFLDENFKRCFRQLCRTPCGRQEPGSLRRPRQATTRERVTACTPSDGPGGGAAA
T3 sequence (P32300 whole entry): as above
T2 sequence (P41145 whole entry): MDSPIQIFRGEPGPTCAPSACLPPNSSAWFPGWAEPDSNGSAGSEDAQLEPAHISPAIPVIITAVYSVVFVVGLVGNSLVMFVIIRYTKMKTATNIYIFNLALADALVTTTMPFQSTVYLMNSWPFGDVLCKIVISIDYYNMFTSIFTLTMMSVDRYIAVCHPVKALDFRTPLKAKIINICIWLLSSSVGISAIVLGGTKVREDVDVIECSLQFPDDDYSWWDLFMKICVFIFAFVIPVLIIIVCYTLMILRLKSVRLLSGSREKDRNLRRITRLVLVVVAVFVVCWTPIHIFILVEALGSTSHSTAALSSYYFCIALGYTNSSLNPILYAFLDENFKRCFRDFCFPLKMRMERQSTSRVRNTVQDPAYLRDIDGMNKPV
T6 sequence (P41145 whole entry): as above

The term IC50 denotes the point on the concentration scale where inhibition reaches its midpoint. `CN(C)Cc1nc(-c2cccc(C(C)(C)C)c2)n(-c2cccc(O)c2)n1` [DOP106, 3-[5-(3-tert-Butyl-phenyl)-3-dimethylaminomethyl-[1,2,4,]triazole-1-yl]-phenol]: on delta receptor, the “Selectivity κ/δ” value is reported as 7 and the “Selectivity μ/δ” value is listed as 50. At human kappa receptor (setting [3]), the IC50 was found to be 341 ± 20 nM. Also, at δ-receptor [1], the “Function at δ” value is “Agonist”.
Consider `CN(C)Cc1nc(-c2ccc(C(C)(C)C)cc2)n(-c2cccc(O)c2)n1` [DOP108, 3-[5-(4-tert-Butyl-phenyl)-3-dimethylaminomethyl-[1,2,4,]triazole-1-yl]-phenol], for which, at human kappa receptor (setting [3]), the IC50 was 3850 ± 311 nM. Besides, the “Function at δ” value on δ-receptor [1] is listed as “Agonist”.
For `Cc1ccc(-c2nc(CN(C)C)nn2-c2cccc(O)c2)c(C)c1` [DOP110], at delta receptor, the “Selectivity κ/δ” value is listed as 1.3 and the “Selectivity μ/δ” value is recorded as 8.9. For the same molecule, the IC50 on human kappa receptor (setting [3]) was 351 ± 95 nM. The “Function at δ” value on δ-receptor [1] is “Agonist”.
With `CN(C)c1nnc(-c2cccc(O)c2)n1-c1ccc(C(C)(C)C)cc1` [DST8S], the IC50 turned out to be 2780 nM on delta receptor, 2130 nM at human kappa receptor (setting [4]) and 991 nM at mu receptor.
With `CN(C)c1nnc(-c2cccc(O)c2)n1-c1cccc(C(C)(C)C)c1` [DST10S], the “Function at the mu opioid receptor” value at mu opioid receptor is “moderate to strong antagonist”. For the same molecule, the “Function at the kappa opioid receptor” value at kappa opioid receptor was “particularly strong agonist”. Also, the results for the IC50 on delta receptor, on human kappa receptor (setting [4]) and on mu receptor were 114 nM, 23 nM and 118 nM, respectively. In addition, the “Function at the delta opioid receptor” value at δ-receptor [1] (compound of Formula II, Table III) is recorded as “moderate to strong antagonist”.
Regarding `C=CCN1C[C@H](C)N([C@H](c2ccc(C(=O)N(CC)CC)cc2)c2cccc(OC)c2)C[C@H]1C` [SNC80], the “Function at δ” value on δ-receptor [2] is reported as “Agonist”.
